Results taken from patent publication USRE38825E1, “Glyphosate tolerant plants” (Monsanto Technology LLC, priority 1990, dated 2005).

Experiments:
[1] = target: LBAA glyphosate oxidoreductase variant v1w2w3 (GLY84, LYS153, HIS334) (Ochrobactrum sp. G-1, UniProt D2KI28, S2A/S84G); experiment: Kinetic analysis of domain switches, clone v1w2w3; format: biochemical, bacterial isolate LBAA (Pseudomonas strain LBAA); conditions: substrate glyphosate
Experimental: (§1) The mutagenesis procedure used was that of Mn++-poisoned PCR and the template was a linearized glyphosate oxidoreductase gene plasmid containing the synthetic glyphosate oxidoreductase gene (SEQ ID NO:8). The oligonucleotide primers used were homologous to regions in the vector and flanking the glyphosate oxidoreductase gene. The PCR conditions employed were as follows: 1 minute at 94° C., 2 minutes at 55° C., and 3 minutes at 72° C. and with 35 cycles. A 5:1 ratio of dCTP+dGTP+TTP to dATP was used. The reactions contained MnCl2 at 125, 250, 375, or 500 μM. After the reaction, the amplified product was recloned into a vector containing a weak E. coli promoter. This vector was a pBR327 derivative containing the araBAD promoter and suitable cloning sites. […] Growth rates were determined by measuring A550 over a 96 hour period. […] Protein concentrations were determined using the Bio-Rad protein dye-binding assay. […] Ten minutes was determined to be the optimal time for the enzyme assay using 10 μg lysate. […] Enzyme activity was determined from the amount of glyoxylate-DNPH adduct formed by measuring A520 against a standard of glyoxylate. […] The Km and Vmax were determined from Lineweaver Burk, Eadie-Hofstee and hyperbolic kinetic plots. […]

[2] = target: LBAA glyphosate oxidoreductase variant w1v2w3 (SER84, ARG153, HIS334) (Ochrobactrum sp. G-1, UniProt D2KI28, K153R/S2A); experiment: Kinetic analysis of domain switches, clone w1v2w3; format: biochemical, bacterial isolate LBAA (Pseudomonas strain LBAA); conditions: substrate glyphosate
Experimental: as §1

O=C(O)CNCP(=O)(O)O [glyphosate, N-phosphonomethyl-glycine]
VmKm [1]: 0.027
VmKm [2]: 0.026
